Tests used:
[1] = target: T1, Muscarinic acetylcholine receptor (Rattus norvegicus) (UniProt P08482+P08483+P08485+P08911+P10980)
Description: Affinity to displace radioligand [3H]oxotremorine (OXO) at muscarinic acetylcholine receptor from rat cortical homogenate.

[2] = target: T1, Muscarinic acetylcholine receptor (Rattus norvegicus); remark: listed apart in the source
Description: Ability to displace radioligand [3H]N-methylscopolamine (NMS) at muscarinic acetylcholine receptor from rat cortical homogenate.

[3] = system: Muscarinic acetylcholine receptor (Rattus norvegicus); assay: Ratio of [3H]N-methylscopolamine (NMS) to [3H]oxotremorine (OXO) at Muscarinic acetylcholine receptor from rat cortical homogenate
[4] = target: T1, Muscarinic acetylcholine receptor (Rattus norvegicus); assay: Ability to displace radioligand [3H]N-methylscopolamine (NMS) at Muscarinic acetylcholine receptor from rat cortical homogenate

Structure (SMILES)	K app [1] [µM]	K app [2] [µM]	Ratio [3]	K app [4] [µM]
CC(C)c1nsc([C@@H]2CN3CCC2C3)n1 (stereo not given in full)	0.041	0.29	–	–
COc1nsc([C@H]2CN3CCC2C3)n1 (stereo not given in full)	0.017	1.8	–	–
Cc1nsc(C2CN3CCC2CC3)n1 (stereo not given)	0.00078	0.36	–	–
C1CC1c1nsc([C@H]2CN3CCC2C3)n1 (stereo not given in full)	0.019	0.16	–	–
c1ccc(Cc2nsc(C3CN4CCC3CC4)n2)cc1 (stereo not given)	0.014	0.082	–	–
CN1CCC=C(c2ncno2)C1	0.0077	8.9	1200	–
CCc1nsc([C@@H]2CN3CCC2C3)n1 (stereo not given in full)	0.005	0.29	–	–
CCc1nsc(C2CN3CCC2CC3)n1 (stereo not given)	0.009	0.082	–	–
CN1CCC=C(c2ncns2)C1	0.027	11	–	–
Cc1nsc(C2CCNC2)n1 (stereo not given)	0.054	18	–	–
CCc1nsc([C@H]2CN3CCC2C3)n1 (stereo not given in full)	0.033	0.51	–	–
Cc1nsc(C2=CCCNC2)n1	0.0021	0.95	–	–
Cc1noc(C2=CCCN(C)C2)n1	–	–	390	–
COC(=O)C1=CCCNC1	0.017	20	–	–
C1=C(c2ncns2)CNCC1	0.014	11	–	–
c1ccc(Cc2nsc([C@H]3CN4CCC3C4)n2)cc1 (stereo not given in full)	0.061	0.54	–	–
CN(C)c1nsc([C@H]2CN3CCC2C3)n1 (stereo not given in full)	0.098	0.99	–	–
C1CC1c1nsc(C2CN3CCC2CC3)n1 (stereo not given)	0.0028	0.023	–	–

Structure (SMILES)	K app [1] [µM]	K app [2] [µM]	Ratio [3]	K app [4] [µM]
c1nsc(C2CN3CCC2CC3)n1 (stereo not given)	0.0077	3.3	–	–
Cc1nsc([C@@H]2CN3CCC2C3)n1 (stereo not given in full)	0.00062	0.62	–	–
COc1nsc([C@@H]2CN3CCC2C3)n1 (stereo not given in full)	0.006	2	–	–
c1nsc([C@@H]2CN3CCC2C3)n1 (stereo not given in full)	0.0056	–	–	6.4
COc1nsc(C2CN3CCC2CC3)n1 (stereo not given)	0.033	0.9	–	–
CN(C)c1nsc([C@@H]2CN3CCC2C3)n1 (stereo not given in full)	0.062	0.84	–	–
CC(C)c1nsc(C2CN3CCC2CC3)n1 (stereo not given)	0.0031	0.033	–	–
Cc1nsc([C@H]2CN3CCC2C3)n1 (stereo not given in full)	0.00045	0.37	–	–
Cc1nsc(C2CCN(C)C2)n1 (stereo not given)	0.15	36	–	–
CSc1nsc(C2CN3CCC2CC3)n1 (stereo not given)	0.012	0.12	–	–
c1ccc(Cc2nsc([C@@H]3CN4CCC3C4)n2)cc1 (stereo not given in full)	0.074	0.34	–	–
Cc1nsc(C2=CCCN(C)C2)n1	0.0089	1.4	–	–
C1CC1c1nsc([C@@H]2CN3CCC2C3)n1 (stereo not given in full)	0.004	0.21	–	–
c1nsc([C@H]2CN3CCC2C3)n1 (stereo not given in full)	0.0013	1.4	–	–
CN(C)c1nsc(C2CN3CCC2CC3)n1 (stereo not given)	0.023	0.14	–	–
OC(c1ccccc1)(c1ccccc1)c1nsc(C2CN3CCC2CC3)n1 (stereo not given)	6.8e-05	0.0002	–	–
CC(C)c1nsc([C@H]2CN3CCC2C3)n1 (stereo not given in full)	0.055	0.4	–	–

Reference: ChEMBL document CHEMBL1124855, “Synthesis and muscarinic activities of 1,2,4-thiadiazoles” (J Med Chem, 1990)
